In patent publication US7037682B2, “In vitro activity assay for human hepatitis B virus (HBV) DNA polymerase, and its use for screening for inhibitors of HBV DNA polymerase” (Government of the Republic of Singapore, priority 1999, dated 2006):
Entries after “also recorded” stand apart in the source; their conditions may differ.

Test system: wild type human HBV DNA polymerase
Assay: In vitro priming activity assay of human HBV DNA polymerase (anti-priming testing, nitrocellulose membrane filtration)
Type: biochemical, human hepatitis B virus (HBV)
Details: in vitro translated wild type enzyme in wheat germ lysate; [α-32P] dTTP; corresponding nucleotide replaced with the analog; 30° C. for 30 min; FIG. 6
Method: Unless otherwise noted, the polymerase activity assay was conducted in solution containing 100 mM Tris HCl (pH 7.5), 10 mM MgCl2, 30 mM NaCl, 10% glycerol, 4 mM dithiothreitol, 100 μM of each unlabeled deoxyribonucleotide triphosphates (dATP, dCTP and dGTP) and 5 μCi [α-^32P] dTTP. The reactions were incubated at 30° C. for 30 min, after which time a 5 μl aliquot was added to 85 μl of tricine sodium dodecyl sulfate-polyacrylamide gel electrophoresis (SDS-PAGE) sample buffer (Novex, U.S.A.), and 10 μl were analyzed on 10% SDS-PAGE. Following electrophoresis, gels were fixed by soaking in 10% methanol plus 10% acetic acid and dried under vacuum. Dried gels were exposed to X-ray film and signals quantified by laser densitometry.
Screening for inhibitors of human HBV DNA polymerase would provide novel therapeutic agents for HBV infection, as effective inhibition of the polymerase activity will lead to inhibition of HBV viral replication. The simplified activity assay reported in the present invention would allow faster analysis of the inhibitory effects of newly found molecules on DNA polymerase of variant HBV carrying mutations on the major surface antigen. Briefly, a candidate inhibitor was first incubated with the wild type human HBV DNA polymerase that was PCR amplified and in vitro translated as reported in the present invention. The incubation was in the presence of [α-^32P] dTTP and with other conditions identical as above-mentioned. Its inhibitory effect may be determined either by laser densitometry following SDS-PAGE analysis, or by measuring the amount of radiolabeled HBV DNA polymerase bound to nitrocellulose membrane after filtration. […] Further assay on the potential inhibitory effect derived from the above-mentioned assay may then be extended to other systems such as HBV-producing cell lines and transgenic animal model.
Depending on the type of label used, detection of the labeled hybrid HBV DNA polymerase product may be achieved by any appropriate means. Generally this may include a step of separating labeled mononucleotide from labeled human HBV DNA polymerase. […] When the label is a radiolabel as is the case in the simplified assay reported in the present invention, then the amount of radioactivity bound to the filter may be quantified using a plate reading scintillation counter.
In the present invention, the following nucleotide analogs capable of inhibiting the HBV DNA polymerase activity may be assayed for their anti-priming activity. […] The remaining radiolabeled human HBV DNA polymerase bound to the nitrocellulose membrane is then measured quantified using a plate reading scintillation counter.

SMILES: Nc1ccn([C@H]2CC[C@@H](COP(=O)(O)OP(=O)(O)OP(=O)(O)O)O2)c(=O)n1 [ddCTP]
- anti-priming effect (radiolabeled human HBV DNA polymerase remained on nitrocellulose membrane, as measured by cpm, compared with the control): inhibitory effect is observed; also recorded: significantly lower amount

SMILES: Nc1nc2c(ncn2[C@H]2CC[C@@H](COP(=O)(O)OP(=O)(O)OP(=O)(O)O)O2)c(=O)[nH]1 [ddGTP]
- anti-priming effect (radiolabeled human HBV DNA polymerase remained on nitrocellulose membrane, as measured by cpm, compared with the control): inhibitory effect is observed; also recorded: significantly lower amount

SMILES: Cc1cn([C@H]2CC[C@@H](COP(=O)(O)OP(=O)(O)OP(=O)(O)O)O2)c(=O)[nH]c1=O [ddTTP]
- anti-priming effect (radiolabeled human HBV DNA polymerase remained on nitrocellulose membrane, as measured by cpm, compared with the control): no obvious anti-priming effect; also recorded: no anti-priming activity is observed

SMILES: Nc1ncnc2c1ncn2[C@H]1CC[C@@H](COP(=O)(O)OP(=O)(O)OP(=O)(O)O)O1 [ddATP]
- anti-priming effect (radiolabeled human HBV DNA polymerase remained on nitrocellulose membrane, as measured by cpm, compared with the control): no obvious anti-priming effect; also recorded: no anti-priming activity is observed
